Assay results from patent US8399493B2, “Pyridinone derivatives and their use as positive allosteric modulators of mGluR2-receptors” (Janssen Pharmaceuticals, Inc., priority 2004, dated 2013).

Columns and labels:
native rat mGluR2 = target: T1, native rat mGluR2 (Rattus norvegicus, UniProt P31421); assay: [35S]GTPγS binding assay using cortical rat brain membranes; type: biochemical; details: selective mGluR2 agonist such as LY379268; rat cortical membranes; 3 or 10 μM of positive allosteric modulator
T1 construct: from tissue; host or cells: rat brain cortex membranes (Sprague-Dawley rats, Charles River Laboratories)
Excerpt: The [^35S]GTPγS binding is a functional membrane-based assay used to study G-protein coupled receptor (GPCR) function. This method is using a binding assay to assess the initial step in receptor-mediated G protein activation in membranes prepared from cells expressing recombinant GPCR or using membranes from discrete area of the rat brain. In brief, the assay is measuring the activation of G proteins by catalyzing the exchange of guanosine 5′-diphosphate (GDP) by guanosine 5′-triphosphate (GTP) at the α subunit. The GTP-bounded G proteins dissociate into two subunits, Gα-GTP and Gβγ, which in turn regulate intracellular enzymes and ion channels. GTP is rapidly hydrolysed by the Gα-subunit (GTPases) and the G protein is deactivated and ready for new GTP exchange cycle (Harper (1998) Curr Protoc Pharmacol 2.6.1-10, John Wiley & Sons, Inc.). [^35S]GTPγS, a non-hydrolyzed analogue of GTP, is used for this purpose.
This method is widely used to study receptor activation of G protein in membranes prepared from rat brain tissue, including mGluR2 receptors (Schaffhauser et al 2003, Pinkerton et al, 2004). mGluR2 receptors are expressed in the rat brain cortex (Mutel et al (1998) J. Neurochem. 71:2558-64; Schaffhauser et al (1998) Mol. Pharmacol. 53:228-33) and are coupled to Gαi-protein, a preferential coupling for this method.
[^35S]GTPγS binding assay using cortical rat brain membranes preparation was used and adapted from Schaffhauser et al ((2003) Mol. Pharmacol. 4:798-810) for the detection of the positive allosteric modulator properties of the compounds of this invention on native rat mGluR2. In order to eliminate the possible interference with group III Gαi-protein coupled mGluRs (mGluR4, mGluR7, mGluR8; mGluR6 is not expressed in the cortex (Laurie et al (1997) Neuropharmacol. 36:145-52)), the potentiation of the response to a selective mGluR2 agonist, such as DCG-IV (Cartmell et al. (1998) Br. J. Pharmacol. 123(3):497-504) or LY379268 (Monn et al. (1999) J. Med. Chem 42:1027-40), by compounds described in the present invention was performed.
Cortices were dissected out from brains of 200-300 g Sprague-Dawley rats (Charles River Laboratories, L'Arbresle, France). Tissues were homogenized in 6 volumes (vol/wt) of 10% sucrose at 4° C. using a glass-teflon homogenizer. The homogenate was centrifuged at 1250 g for 10 min, and the supernatant was centrifuged at 40,000 g for 20 min (4° C.). The pellet was resuspended in 25 ml water using a Polytron disrupter (Kinematica AG, Luzern, Switzerland) and centrifuged for 10 min at 3000 g. (4° C.). The supernatant was centrifuged at 40,000 g for 20 min (4° C.). The supernatant was discarded and the pellet washed twice by resuspension in 10 volumes 5 mM HEPES-KOH, pH 7.4. The homogenate was frozen and thawed twice and centrifuged at 40,000 g for 20 min. The final pellet was resuspended in 5 mM HEPES-KOH, pH 7.4 and stored at −80° C. before its use. Protein concentration was determined by the Bradford method (Bio-Rad protein assay, Reinach, Switzerland) with bovine serum albumin as standard.
Measurement of mGluR2 positive allosteric modulators properties in rat cortical membranes was performed as follows: rat cortical membrane (1.5 μg) were incubated in 96-well microplates for 15 min at 30° C. in assay buffer (50 mM HEPES pH 7.4, 100 mM NaCl, 5 mM MgCl2, 10 μM GDP, 10 μg/ml saponin, EGTA 0.2 mM) with increasing concentrations of positive allosteric modulator (from 1 nM to 10 μM) and a minimal concentration of DCG-IV or LY379268, a selective mGluR2 agonist, that has been determined in previous experiments and that corresponds to the EC20, a concentration that gives 20% of the maximal response of the agonist, and is in accordance to published data (Pin et al. (1999) Eur. J. Pharmacol. 375:277-294). […]

T1 sequence (P31421 19-872): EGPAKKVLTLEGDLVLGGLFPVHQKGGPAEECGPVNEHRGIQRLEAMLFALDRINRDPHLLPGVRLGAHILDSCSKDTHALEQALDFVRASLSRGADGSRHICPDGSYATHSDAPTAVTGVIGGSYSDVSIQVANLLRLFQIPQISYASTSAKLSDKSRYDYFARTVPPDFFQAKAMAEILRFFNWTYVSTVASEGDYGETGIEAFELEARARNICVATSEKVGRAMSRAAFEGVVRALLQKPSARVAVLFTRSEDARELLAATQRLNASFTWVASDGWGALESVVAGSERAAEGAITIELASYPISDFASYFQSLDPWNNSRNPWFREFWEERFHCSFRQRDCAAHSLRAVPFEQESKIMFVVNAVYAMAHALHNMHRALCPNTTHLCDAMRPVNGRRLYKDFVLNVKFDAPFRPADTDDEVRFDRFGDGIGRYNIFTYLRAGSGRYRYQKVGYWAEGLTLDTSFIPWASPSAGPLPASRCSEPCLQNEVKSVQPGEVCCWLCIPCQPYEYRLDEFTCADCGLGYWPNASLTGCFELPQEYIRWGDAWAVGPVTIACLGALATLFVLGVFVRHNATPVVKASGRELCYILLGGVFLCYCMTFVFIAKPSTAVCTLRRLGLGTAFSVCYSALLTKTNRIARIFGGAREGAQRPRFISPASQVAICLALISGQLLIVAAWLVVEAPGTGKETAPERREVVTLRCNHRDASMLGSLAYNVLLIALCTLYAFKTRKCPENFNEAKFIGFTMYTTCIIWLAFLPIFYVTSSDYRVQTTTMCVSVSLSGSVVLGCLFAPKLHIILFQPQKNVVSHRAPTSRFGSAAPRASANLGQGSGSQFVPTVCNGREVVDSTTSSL

| melting point [°C] | SMILES | Activity: left-ward shift of agonist mGluR2 concentration-response curve (native rat mGluR2) |
| --- | --- | --- |
|  | COc1ccc(-c2cn(Cc3ccc(Cl)cc3F)c(=O)cc2OC)cc1 [9-18, 1-(4-Chloro-2-fluorobenzyl)-4-methoxy-5-(4-methoxyphenyl)pyridin-2(1H)-one] | + (left-ward shift of agonist mGluR2 concentration-response curve [<2]) |
| 120 | COc1ccc(-c2ccc(=O)n(Cc3ccc(F)c(F)c3)c2)cn1 [6-16] | ++ (left-ward shift of agonist mGluR2 concentration-response curve [2- to 3.5-fold]) |
| 133 | COc1ccc(-c2cn(Cc3ccc(Cl)cc3)c(=O)cn2)cc1 [12-06, 1-(4-Chlorobenzyl)-5-(4-methoxyphenyl)pyrazin-2(1H)-one] | + (left-ward shift of agonist mGluR2 concentration-response curve [<2]) |
| 170 to 171 | CCCn1ccc2c(NCCc3ccc(O)cc3)cccc2c1=O [13-05, 5-(4-Hydroxyphenethylamino)-2-propylisoquinolin-1(2H)-one] | +++ (left-ward shift of agonist mGluR2 concentration-response curve [>3.5]) |
| 197 | O=c1ccc(-c2ccc(OCc3nn[nH]n3)cc2)cn1Cc1ccc(Cl)cc1F [6-65, 5-(4-((2H-Tetrazol-5-yl)methoxy)phenyl)-1-(4-chloro-2-fluorobenzyl)pyridin-2(1H)-one] | +++ (left-ward shift of agonist mGluR2 concentration-response curve [>3.5]) |
| 179 | Cl.O=c1ccc(C#Cc2cccnc2)cn1Cc1cccc(F)c1 [7-02, 1-(3-Fluorobenzyl)-5-(2-(pyridin-3-yl)ethynyl)pyridin-2(1H)-one hydrochloride] | + (left-ward shift of agonist mGluR2 concentration-response curve [<2]) |
| 135 | Cc1ccc(-c2ccc(=O)n(Cc3ccc(Cl)cc3)c2)nc1 [2-61] | ++ (left-ward shift of agonist mGluR2 concentration-response curve [2- to 3.5-fold]) |
| 107 | O=c1c2ccccc2ccn1Cc1ccc(F)cc1 [13-01, 2-(4-Fluorobenzyl)isoquinolin-1(2H)-one] | ++ (left-ward shift of agonist mGluR2 concentration-response curve [2- to 3.5-fold]) |
| 165 | CS(=O)(=O)NCc1ccc(-c2ccc(=O)n(Cc3ccc(Cl)cc3F)c2)cc1 [6-73] | ++ (left-ward shift of agonist mGluR2 concentration-response curve [2- to 3.5-fold]) |
| 185 | O=C(O)CCc1ccc(-c2ccc(=O)n(Cc3ccc(Cl)cc3)c2)cc1 [2-32] | ++ (left-ward shift of agonist mGluR2 concentration-response curve [2- to 3.5-fold]) |
| 139 | O=c1ccc2ccccc2n1Cc1ccc(Cl)cc1 [15-04, 1-(4-Chlorobenzyl)quinolin-2(1H)-one] | + (left-ward shift of agonist mGluR2 concentration-response curve [<2]) |
| 119 to 121 | O=c1ccc(COc2ccccc2)cn1Cc1ccc(C(F)(F)F)nc1 [16-07] | ++ (left-ward shift of agonist mGluR2 concentration-response curve [2- to 3.5-fold]) |
|  | COc1cccc(Cc2ccc(=O)n(Cc3ccc(Cl)cc3)c2)c1 [3-02, 5-(3-Methoxybenzyl)-1-(4-chlorobenzyl)pyridin-2(1H)-one] | ++ (left-ward shift of agonist mGluR2 concentration-response curve [2- to 3.5-fold]) |
|  | COCCc1cc(=O)n(Cc2ccc(Cl)cc2)cc1-c1ccc(OC)cc1 [9-17, 1-(4-Chlorobenzyl)-4-(2-methoxyethyl)-5-(4-methoxyphenyl)pyridin-2(1H)-one] | + (left-ward shift of agonist mGluR2 concentration-response curve [<2]) |
| 142 | CC(=O)c1ccc(-c2ccc(=O)n(Cc3ccc(F)c(F)c3)c2)cc1 [6-12] |  |
| 176 | O=c1ccc(-c2ccc(CO)cc2)cn1Cc1ccc(Cl)cc1F [6-26] |  |
| 118 | Cc1ccc(-c2ccc(=O)n(Cc3ccccc3)c2)cc1C [1-06] |  |
| 241 | O=c1ccc(-c2ccc(-c3nnn[nH]3)cc2)cn1Cc1ccc(Cl)cc1F [6-68] |  |
| 152 | CC(=O)NCCOCc1ccc(-c2ccc(=O)n(Cc3ccc(Cl)cc3)c2)cc1 [2-42, N-(2-(4-(1-(4-Chlorobenzyl)-6-oxo-1,6-dihydropyridin-3-yl)benzyloxy)ethyl)acetamide] |  |
| 99 | O=c1ccc(-c2ccc3c(c2)CCO3)cn1Cc1ccc(F)c(F)c1 [6-17] |  |
| 114 | O=c1ccc(-c2ccc(OCc3ccco3)cc2)cn1Cc1ccc(Cl)cc1F [6-37] |  |

| melting point [°C] | SMILES | Activity: left-ward shift of agonist mGluR2 concentration-response curve (native rat mGluR2) |
| --- | --- | --- |
| 139 | NCc1ccc(-c2ccc(=O)n(Cc3ccc(Cl)cc3F)c2)cc1 [6-24] |  |
| 126 | COc1ccc(-c2ccc(=O)n(Cc3nc4c(F)cccc4s3)c2)cc1 [4-54] |  |
| 125 | C=Cc1ccc(-c2ccc(=O)n(Cc3ccc(Cl)cc3)c2)cc1 [2-06] |  |
| 266 | Cl.Nc1ccc(-c2ccc(=O)n(Cc3ccc(Cl)cc3F)c2)cc1 |  |
| 89 | COc1ccc(-c2ccc(=O)n(Cc3ccc(Cl)cc3)c2)c(F)c1 [2-11] |  |
| 143 | CC(=O)NCc1cccc(-c2ccc(=O)n(Cc3ccc(Cl)cc3F)c2)c1 [6-60] |  |
| 162 | CC(=O)c1ccc(-c2ccc(=O)n(Cc3ccc(Cl)cc3)c2)cc1 [2-30] |  |
| 135 | COc1ccc(-c2ccc(=O)n(Cc3ccc(Cl)nc3)c2)cc1 [4-44] |  |
| 153 | CC(=O)NCCOc1ccc(-c2ccc(=O)n(Cc3ccc(Cl)cc3F)c2)cc1 [6-53, N-(2-(4-(1-(4-Chloro-2-fluorobenzyl)-6-oxo-1,6-dihydropyridin-3-yl)phenoxy)ethyl)acetamide] |  |
| 145 | CC(C)(C)c1ccc(-c2ccc(=O)n(Cc3ccccc3)c2)cc1 [1-05] |  |
| 128 | COc1ccc(-c2cc(CO)c(=O)n(Cc3ccc(Cl)cc3)c2)cc1 [9-08, 1-(4-Chlorobenzyl)-3-(hydroxymethyl)-5-(4-methoxyphenyl)pyridin-2(1H)-one] |  |
| 175 | COC(=O)c1ccc(-c2ccc(=O)n(Cc3ccc(Cl)cc3)c2)cc1 [2-33] |  |
| 70 | Nc1cccc(-c2ccc(=O)n(Cc3ccc(Cl)cc3F)c2)c1 [6-22] |  |
| 160 | N#CCOc1ccc(-c2ccc(=O)n(Cc3ccc(Cl)cc3F)c2)cc1 [6-46, 2-(4-(1-(4-Chloro-2-fluorobenzyl)-6-oxo-1,6-dihydropyridin-3-yl)-phenoxy)acetonitrile] |  |
| 107 | CCCOc1ccc(-c2ccc(=O)n(Cc3ccc(Cl)cc3F)c2)cc1 [6-32] |  |
| 88 | CCCOc1ccc(-c2ccc(=O)n(Cc3ccccc3)c2)cc1 [1-17] |  |
| 165 | COc1ccc(-c2ccc(=O)n(Cc3cccc(C#N)c3)c2)cc1 [4-29] |  |
| 180 | O=C1CCCN1CCOc1ccc(-c2ccc(=O)n(Cc3ccc(Cl)cc3F)c2)cc1 [6-62] |  |
| 202 | O=c1ccc(-c2ccc(O)cc2)cn1Cc1ccc(Cl)cc1 [2-13] |  |
| 104 | CN(C)C(=O)CCc1ccc(-c2ccc(=O)n(Cc3ccc(Cl)cc3)c2)cc1 [2-47] |  |
